From ChEMBL document CHEMBL4145553, “Design, synthesis, and biological evaluation of novel amide and hydrazide based thioether analogs targeting Histone deacteylase (HDAC) enzymes” (Eur J Med Chem, 2018)

Key:
[1] = system: BT-549; test: Growth inhibition of human BT549 cells at 10 uM incubated for 48 hrs by sulforhodamine B assay relative to control; assay type: functional; settings: BT-549, 48 h, values are per cent of control
[2] = system: OVCAR-5; test: Growth of human OVCAR5 cells at 10 uM incubated for 48 hrs by sulforhodamine B assay relative to control; settings: OVCAR-5, 48 h
[3] = system: NCI-H522; test: Growth of human NCI-H522 cells at 10 uM incubated for 48 hrs by sulforhodamine B assay relative to control; settings: NCI-H522, 48 h
[4] = system: HT-29; test: Growth of human HT-29 cells at 10 uM incubated for 48 hrs by sulforhodamine B assay relative to control; settings: HT-29, 48 h
[5] = system: NCI/ADR-RES; test: Growth inhibition of human NCI/ADR-RES cells at 10 uM incubated for 48 hrs by sulforhodamine B assay relative to control; assay type: functional; settings: values are per cent of control
[6] = system: M14; test: Growth of human M14 cells at 10 uM incubated for 48 hrs by sulforhodamine B assay relative to control; settings: M14, 48 h
[7] = system: OVCAR-4; test: Growth of human OVCAR4 cells at 10 uM incubated for 48 hrs by sulforhodamine B assay relative to control; settings: OVCAR-4, 48 h
[8] = system: OVCAR-3; test: Growth of human OVCAR3 cells at 10 uM incubated for 48 hrs by sulforhodamine B assay relative to control; settings: OVCAR-3, 48 h
[9] = system: 786-0; test: Growth inhibition of human 786-0 cells at 10 uM incubated for 48 hrs by sulforhodamine B assay relative to control; assay type: functional; settings: 786-0, 48 h, values are per cent of control
[10] = system: DU-145; test: Growth inhibition of human DU145 cells at 10 uM incubated for 48 hrs by sulforhodamine B assay relative to control; assay type: functional; settings: DU-145, 48 h, values are per cent of control
[11] = system: Hs-578T; test: Growth inhibition of human Hs 578T cells at 10 uM incubated for 48 hrs by sulforhodamine B assay relative to control; assay type: functional; settings: values are per cent of control
[12] = system: MDA-MB-468; test: Growth inhibition of human MDA-MB-468 cells at 10 uM incubated for 48 hrs by sulforhodamine B assay relative to control; assay type: functional; settings: MDA-MB-468, 48 h, values are per cent of control
[13] = system: K562; test: Growth of human K562 cells at 10 uM incubated for 48 hrs by sulforhodamine B assay relative to control; settings: K562, 48 h
[14] = system: T47D; test: Growth inhibition of human T47D cells at 10 uM incubated for 48 hrs by sulforhodamine B assay relative to control; assay type: functional; settings: values are per cent of control
[15] = system: MDA-MB-231; test: Growth inhibition of human MDA-MB-231 cells at 10 uM incubated for 48 hrs by sulforhodamine B assay relative to control; assay type: functional; settings: MDA-MB-231, 48 h, values are per cent of control
[16] = system: EKVX; test: Growth of human EKVX cells at 10 uM incubated for 48 hrs by sulforhodamine B assay relative to control
[17] = system: U-251; test: Growth of human U251 cells at 10 uM incubated for 48 hrs by sulforhodamine B assay relative to control; settings: U-251, 48 h
[18] = system: UACC-257; test: Growth of human UACC257 cells at 10 uM incubated for 48 hrs by sulforhodamine B assay relative to control; settings: UACC-257, 48 h
[19] = system: SK-MEL-2; test: Growth of human SK-MEL-2 cells at 10 uM incubated for 48 hrs by sulforhodamine B assay relative to control; settings: SK-MEL-2, 48 h
[20] = system: HOP-92; test: Growth inhibition of human HOP92 cells at 10 uM incubated for 48 hrs by sulforhodamine B assay relative to control; assay type: functional; settings: HOP-92, 48 h, values are per cent of control
[21] = system: SK-MEL-5; test: Growth of human SK-MEL-5 cells at 10 uM incubated for 48 hrs by sulforhodamine B assay relative to control; settings: SK-MEL-5, 48 h
[22] = system: SK-OV-3; test: Growth inhibition of human SKOV3 cells at 10 uM incubated for 48 hrs by sulforhodamine B assay relative to control; assay type: functional; settings: SK-OV-3, 48 h, values are per cent of control
[23] = system: MOLT-4; test: Growth of human MOLT4 cells at 10 uM incubated for 48 hrs by sulforhodamine B assay relative to control; settings: MOLT-4, 48 h
[24] = system: NCI-H226; test: Growth inhibition of human NCI-H226 cells at 10 uM incubated for 48 hrs by sulforhodamine B assay relative to control; assay type: functional; settings: NCI-H226, 48 h, values are per cent of control
[25] = system: RPMI-8226; test: Growth of human RPMI8226 cells at 10 uM incubated for 48 hrs by sulforhodamine B assay relative to control; settings: RPMI-8226, 48 h
[26] = system: HL-60(TB); test: Growth inhibition of human HL-60(TB) cells at 10 uM incubated for 48 hrs by sulforhodamine B assay relative to control; assay type: functional; settings: HL-60, 48 h, values are per cent of control
[27] = system: SN12C; test: Growth inhibition of human SN12C cells at 10 uM incubated for 48 hrs by sulforhodamine B assay relative to control; assay type: functional; settings: values are per cent of control

Compound | growth, % of control at 10 µM [1] [%] | growth, % of control at 10 µM [2] [%] | growth, % of control at 10 µM [3] [%] | growth, % of control at 10 µM [4] [%] | growth, % of control at 10 µM [5] [%] | growth, % of control at 10 µM [6] [%] | growth, % of control at 10 µM [7] [%] | growth, % of control at 10 µM [8] [%] | growth, % of control at 10 µM [9] [%] | growth, % of control at 10 µM [10] [%] | growth, % of control at 10 µM [11] [%] | growth, % of control at 10 µM [12] [%] | growth, % of control at 10 µM [13] [%] | growth, % of control at 10 µM [14] [%] | growth, % of control at 10 µM [15] [%] | growth, % of control at 10 µM [16] [%] | growth, % of control at 10 µM [17] [%] | growth, % of control at 10 µM [18] [%] | growth, % of control at 10 µM [19] [%] | growth, % of control at 10 µM [20] [%] | also measured
CCS/C(Nc1ccccc1)=C(\C#N)C(=O)N/N=C\c1ccco1 | 109 | 106 | 75.7 | 94.7 | 101 | 99.2 | 106 | 104 | 100 | 106 | 101 | 91.4 | 97.8 | 78 | 96.2 | 101 | 94 | 84.4 | 94.3 | 94.7 | growth, % of control at 10 µM [21]: 101%; growth, % of control at 10 µM [22]: 99.3%; growth, % of control at 10 µM [23]: 76.3%; growth, % of control at 10 µM [24]: 95.2%; growth, % of control at 10 µM [25]: 103%; growth, % of control at 10 µM [26]: 84.2%; growth, % of control at 10 µM [27]: 97.7%
CC(C)(C)S/C(Nc1ccccc1)=C(\C#N)C(=O)N/N=C\c1ccc(Cl)cc1Cl | 97 | 106 | 82.7 | 92.6 | 96 | 98.5 | 112 | 98.6 | 97.8 | 113 | 90.1 | 98.9 | 91.8 | 78.4 | 96.8 | 101 | 98.6 | 92.5 | 91.6 | 94.1 | growth, % of control at 10 µM [21]: 98.7%; growth, % of control at 10 µM [22]: 101%; growth, % of control at 10 µM [23]: 86.2%; growth, % of control at 10 µM [24]: 92.6%; growth, % of control at 10 µM [25]: 98.7%; growth, % of control at 10 µM [26]: 89.2%; growth, % of control at 10 µM [27]: 101%
CC(C)(C)S/C(Nc1ccccc1)=C(\C#N)C(=O)N/N=C\c1ccco1 | 103 | 101 | 71.1 | 87.2 | 100 | 105 | 104 | 106 | 102 | 109 | 92.5 | 95.8 | 100 | 91.4 | 99.6 | 91.9 | 94.7 | 83 | 103 | 82.3 | growth, % of control at 10 µM [21]: 96.9%; growth, % of control at 10 µM [22]: 89.3%; growth, % of control at 10 µM [23]: 88.6%; growth, % of control at 10 µM [24]: 92%; growth, % of control at 10 µM [25]: 106%; growth, % of control at 10 µM [26]: 63.6%; growth, % of control at 10 µM [27]: 103%
